Source: patent US20100216795A1, “TNIK INHIBITOR AND THE USE” (priority 2008, published 2010)

Target: T1, human TNIK (N-terminal segment, TNIK_N) (Homo sapiens, UniProt Q9UKE5)
T1 construct: made in house; host or cells: Sf21 insect cells (baculovirus)
Test: TNIK kinase assay (mobility shift)
Format: biochemical
Conditions: 25 μM ATP, 1 h at room temperature
Text: A cDNA encoding the N-terminal segment (TNIK_N, residues 1-314) containing the kinase domain of human TNIK (NM_015028.1) was amplified from cDNA mixture synthesized from human tissue (Biochain) by PCR using the following primers: 5′-[…]-3′ ([SEQ ID NO:1]: forward primer, the underlined nucleotides indicates the location of a EheI site); 5′-[…]-3′ ([SEQ ID NO:2]: reverse primer, the underlined nucleotides indicates the location of a NotI site). The cDNA was subcloned into baculovirus transfer vector pFastBac_GSTb that includes protease cleavage site and glutathione S-transferase purification tag (GST-tag). The plasmid was purified and the insertion of the pFastBac_GSTb-TNIK_N was confirmed by DNA sequencing. Then E. coli DH10Bac competent cells were transformed with the plasmid to prepare the recombinant bacmid according to the instructions for the Bac-to-Bac™ baculovirus expression systems (Invitrogen). The Sf9 cells were transfected with the recombinant bacmid containing pFastBac_GSTb-TNIK_N using Cellfectin Reagent (Invitrogen) in SF-900II serum free media (Invitrogen). The viral supernatant was collected from the medium 72 h after transfection. The virus was amplified three times by infecting actively growing Sf9 or Sf21 cells in Grace's insect media (Invitrogen) supplemented with 10% FCS and an antibiotic-antimycotic reagent (Invitrogen) for 72 h at 27° C. in T-flask or roller bottles. The titer of amplified TNIK_N virus was estimated at 2.36×10^8 pfu/ml by using BacPAK™ Baculovirus Rapid Titer kit (Clontech).
Log-phase Sf21 cells (2×10^6 cells/ml) in the Grace's insect media were infected with the recombinant baculovirus at MOI of 3.0 and incubated in roller bottles (250 ml media per bottle) for 72 h at 27° C., after which, the cells were collected by centrifugation, and the cell pellet washed with cold PBS and kept at −80° C. until purification. The following purification procedures were carried out at 4° C. The frozen cells were thawed on ice and lysed in lysis buffer (50 mM Tris-HCl, pH 7.5, 150 mM NaCl, 1% Nonidet P-40, 5 mM DTT, 0.5 mM EDTA, 0.5 mM EGTA) supplemented with 1 mM phenylmethansulfonylfluoride, 2 μg/ml leupeptin, 2 μg/ml aprotinin, 1 mM NaF, 100 μM sodium orthovanadate, and 1 μM cantharidin by sonication. The suspended lysate was cleared by centrifugation at 9000 g for 20 min and the supernatant was incubated for 1 h with glutathione Sepharose beads (GE Healthcare). The beads were suspended in buffer-H (50 mM Tris-HCl, pH 7.5, 1 M NaCl, 1 mM DTT, 0.5 mM EDTA, 0.5 mM EGTA and 0.05% Brij35) and washed with buffer-H followed by buffer-L (50 mM Tris-HCl, pH 7.5, 150 mM NaCl, 1 mM DTT, 0.5 mM EDTA, 0.5 mM EGTA, 0.05% Brij35) in an Econo-pack column (BIO-RAD). The bound TNIK_N was eluted with elution buffer (50 mM Tris-HCl, pH 8.0, 150 mM NaCl, 1 mM DTT, 10% glycerol, 0.5 mM EDTA, 0.5 mM EGTA and 5 mM reduced glutathione). The eluted fractions were collected and determined the protein concentration by Bradford reagent (BIO-RAD). The TNIK_N fractions were pooled and desalted using 10DG column (BIORAD) equilibrated with the storage buffer (50 mM Tris-HCl, pH 7.5, 150 mM NaCl, 1 mM DTT, 10% glycerol, 0.05% Brij35). The purified TNIK_N was characterized by electrophoresis using 4-20% polyacrylamide gels and matrix-assisted laser desorption/ionization reflection time-of-flight (MALDI-TOF) mass spectrometry on a Voyager-DE RP MALDI/TOF (Applied Biosystems). TNIK_N was confirmed by the molecular weight and MASCOT Peptide Mass Fingerprint.
The kinase assays were conducted in a 20 μl volume using 384-well plates (Greiner). The reaction mixture consists of compound or vehicle (1% DMSO), 0.08 ng/μl TNIK_N, 1 μM FITC-labeled substrate peptides, FITC-x-Lys-Tyr-Lys-Thr-Leu-Arg-Gln ([SEQ ID NO.3], x: ε-aminocaproic acid), 20 mM Hepes, pH 7.5, 0.01% Triton X-100, 5 mM MgCl2, 25 μM ATP and 2 mM DTT. As blank, TNIK_N was excluded from the reaction mixture of vehicle (1% DMSO). […]

T1 sequence (Q9UKE5 1-314): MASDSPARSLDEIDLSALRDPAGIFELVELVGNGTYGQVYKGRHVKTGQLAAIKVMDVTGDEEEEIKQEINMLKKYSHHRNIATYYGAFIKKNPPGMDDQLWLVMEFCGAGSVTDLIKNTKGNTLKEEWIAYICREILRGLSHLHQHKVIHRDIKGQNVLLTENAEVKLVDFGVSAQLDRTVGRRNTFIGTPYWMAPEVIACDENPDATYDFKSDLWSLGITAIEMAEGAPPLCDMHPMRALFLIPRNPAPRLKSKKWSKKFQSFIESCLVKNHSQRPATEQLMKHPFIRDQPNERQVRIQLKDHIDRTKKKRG

SMILES | IC50
COc1ccc(C(=O)Nc2sc(Nc3ccccc3)nc2C(N)=O)cc1 [Compound 4, 5-(4-methoxybenzamido)-2-(phenylamino)thiazole-4-carboxamide] | 10 nM
NC(=O)c1nc(Nc2ccccc2)sc1NC(=O)CC1CCCC1 [Compound 8, 5-(2-cyclopentylacetamido)-2-(phenylamino)thiazole-4-carboxamide] | 130 nM
Cc1ccc(Nc2nc(C(N)=O)c(NC(=O)c3cccs3)s2)cc1 [Compound 15, 2-(p-toluidino)-5-(thiophene-2-carboxamido)thiazole-4-carboxamide] | 31 nM
CCC(CC)C(=O)Nc1sc(Nc2ccc(C)cc2)nc1C(N)=O [Compound 16, 2-(p-toluidino)-5-(2-ethylbutanamido)thiazole-4-carboxamide] | 4100 nM
Cc1ccc(Nc2nc(C(N)=O)c(NC(=O)c3ccccc3F)s2)cc1 [Compound 9, 2-(p-toluidino)-5-(2-fluorobenzamido)thiazole-4-carboxamide] | 68 nM
COc1cccc(C(=O)Nc2sc(Nc3ccccc3)nc2C(N)=O)c1 [Compound 5, 5-(3-methoxybenzamido)-2-(phenylamino)thiazole-4-carboxamide] | 7700 nM
CCNc1nc(C(N)=O)c(NC(=O)c2cc(-c3ccccc3)nc3c(C)cccc23)s1 [Compound 17, 2-(ethylamino)-5-(8-methyl-2-phenylquinoline-4-carboxamido)thiazole-4-carboxamide] | 3100 nM
Cc1ccc(Nc2nc(C(N)=O)c(NC(=O)c3ccccc3Cl)s2)cc1 [Compound 11, 2-(p-toluidino)-5-(2-chlorobenzamido)thiazole-4-carboxamide] | 1700 nM
CC(=O)Nc1ccc(C(=O)Nc2sc(Nc3ccc(C)cc3)nc2C(N)=O)cc1 [Compound 10, 2-(p-toluidino)-5-(4-acetamidobenzamido)thiazole-4-carboxamide] | 14 nM
Cc1ccc(Nc2nc(C(N)=O)c(NC(=O)c3cccc(Br)c3)s2)cc1 [Compound 12, 2-(p-toluidino)-5-(3-bromobenzamido)thiazole-4-carboxamide] | 1700 nM
Cc1ccc(Nc2nc(C(N)=O)c(NC(=O)c3c(F)cccc3F)s2)cc1 [Compound 13, 2-(p-toluidino)-5-(2,6-difluorobenzamido)thiazole-4-carboxamide] | 180 nM

Other lines, results leading:

IC50 | SMILES
10 nM | COc1ccc(Nc2nc(C(N)=O)c(NC(=O)c3ccc(NCCc4ccncc4)cc3)s2)cc1 [Compound A55, 2-(4-methoxyphenylamino)-5-{4-[2-(pyridin-4-yl)ethylamino]benzamido}thiazole-4-carboxamide]
17 nM | NC(=O)c1nc(Nc2ccccc2)sc1NC(=O)c1ccc(F)cc1 [Compound A2, 5-(4-fluorobenzamido)-2-(phenylamino)thiazole-4-carboxamide]
7 nM | CN1CCN(c2ccc(C(=O)Nc3sc(Nc4cccnc4)nc3C(N)=O)cc2)CC1 [Compound A74, 5-[4-(4-methylpiperazin-1-yl)benzamido]-2-(pyridin-3-ylamino)thiazole-4-carboxamide]
3 nM | COc1ccc(C(=O)Nc2sc(Nc3ccnc(F)c3)nc2C(N)=O)cc1 [Compound A92, 2-(2-fluoropyridin-4-ylamino)-5-(4-methoxy-benzamido)thiazole-4-carboxamide]
10 nM | COCCNc1ccc(C(=O)Nc2sc(Nc3ccc(OC)cc3)nc2C(N)=O)cc1 [Compound A31, 5-[4-(2-methoxyethylamino)benzamido]-2-(4-methoxyphenylamino)thiazole-4-carboxamide]
10 nM | COc1ccc(Nc2nc(C(N)=O)c(NC(=O)c3ccc(N)c(N)c3)s2)cc1 [Compound A103, 5-(3,4-diaminobenzamido)-2-(4-methoxyphenyl-amino)thiazole-4-carboxamide]
18 nM | CC(=O)Nc1ccc(C(=O)Nc2sc(Nc3ccccc3C)nc2C(N)=O)cc1 [Compound A9, 2-(o-toluidino)-5-(4-acetamidobenzamido) thiazole-4-carboxamide]
8 nM | COc1ccc(Nc2nc(C(N)=O)c(NC(=O)c3ccc(NCCN4CCCC4)cc3)s2)cc1 [Compound A29, 2-(4-methoxyphenylamino)-5-{4-[2-(pyrrolidin-1-yl)ethylamino]benzamido}thiazole-4-carboxamide]
8 nM | COc1ccc(Nc2nc(C(N)=O)c(NC(=O)c3ccc(NCCO)cc3)s2)cc1 [Compound A23, 5-[4-(2-hydroxyethylamino)benzamido]-2-(4-methoxyphenylamino)thiazole-4-carboxamide]
11 nM | COc1ccc(Nc2nc(C(N)=O)c(NC(=O)c3ccc(CN4CCN(C)CC4)cc3)s2)cc1 [Compound A44]
22 nM | COc1ccc(Nc2nc(C(N)=O)c(NC(=O)c3ccc(OCCN4CCCC4)cc3)s2)cc1 [Compound A45, 2-(4-methoxyphenylamino)-5-{4-[2-(pyrrolidin-1-yl)ethoxy]benzamido}thiazole-4-carboxamide]
3 nM | COc1ccc(C(=O)Nc2sc(Nc3ccncc3)nc2C(N)=O)cc1 [Compound A47, 5-(4-methoxybenzamido)-2-(pyridin-4-ylamino) thiazole-4-carboxamide]
7 nM | COc1ccc(C(=O)Nc2sc(Nc3cncnc3)nc2C(N)=O)cc1 [Compound A69, 5-(4-methoxybenzamido)-2-(pyrimidin-5-ylamino)thiazole-4-carboxamide]
15 nM | COc1ccc(Nc2nc(C(N)=O)c(NC(=O)c3ccc(N4CCN(C)CC4)cc3)s2)cc1 [Compound A22, 2-(4-methoxyphenylamino)-5-[4-(4-methyl-piperazin-1-yl)benzamido]thiazole-4-carboxamide]
18 nM | COc1ccc(Nc2nc(C(N)=O)c(NC(=O)c3ccc(NC(=O)CN4CCN(C)CC4)cc3)s2)cc1 [Compound A42, 2-(4-methoxyphenylamino)-5-{4-[2-(4-methyl-piperazin-1-yl)acetamido]benzamido}thiazole-4-carboxamide]
5 nM | COc1ccc(Nc2nc(C(N)=O)c(NC(=O)c3ccc(NCCN4CCCCC4)cc3)s2)cc1 [Compound A49, 2-(4-methoxyphenylamino)-5-{4-[2-(piperidin-1-yl)ethylamino]benzamido}thiazole-4-carboxamide]
9 nM | COc1ccc(Nc2nc(C(N)=O)c(NC(=O)c3ccc(NCCN4CCOCC4)cc3)s2)cc1 [Compound A27, 2-(4-methoxyphenylamino)-5-[4-(2-morpholino-ethyl-amino)benzamido]thiazole-4-carboxamide]
18 nM | CC(=O)Nc1ccc(C(=O)Nc2sc(Nc3ccc(F)cc3)nc2C(N)=O)cc1 [Compound A4, 5-(4-acetamidobenzamido)-2-(4-fluorophenyl-amino)-thiazole-4-carboxamide]
6 nM | COc1ccc(Nc2nc(C(N)=O)c(NC(=O)c3ccc(N(S(C)(=O)=O)S(C)(=O)=O)cc3)s2)cc1 [Compound A48, 2-(4-methoxyphenylamino)-5-{4-[N-(methyl-sulfonyl)methylsulfonamido]benzamido} thiazole-4-carboxamide]
